Laboratory results: PubChem BioAssay AID743417 (Broad Institute, 2014)
Inconclusive results are not listed.

System: Clone20 osteoblast Shn3 3'UTR firefly luciferase, 24 h
Assay: Schnurri-3 3'UTR-luciferase signal suppressors – cell-based, Clone20 osteoblasts, luminescence, dry powder, set 2, dose response (AID 743417)

Going from `COc1ccc(-c2ccc(Nc3ccc(S(=O)(=O)N4CCCC4)cc3)nn2)cc1OC` to `COc1ccc(NC(=O)C2Cc3c(-c4cccc(C(C)=O)c4)ccnc3O2)cc1OC` (stereo not drawn), the AC50 falls from 20.1 µM to 0.799 µM (25-fold).

First: CC(C)(C)C(=O)/C(=C/c1ccc(Cl)cc1)n1cncn1
Second: CCCNC(=O)c1nnsc1S(=O)c1ccc(Cl)cc1 (stereo not drawn)
The AC50 of the first is 3-fold higher: 3.75 µM for the first, 1.26 µM for the second.

First: Nc1nc(N)c2cc(S(=O)(=O)c3cccc(C(F)(F)F)c3)ccc2n1
Second: Nc1nc(N)c2cc(S(=O)(=O)c3ccc4ccccc4c3)ccc2n1
The AC50 of the first is 1.5-fold higher: 5.22 µM for the first, 3.37 µM for the second.

First: FC(F)(F)c1cccc(NC(=S)NC(c2ccccc2)c2ccccc2)c1
Second: Cc1ccn2c(Nc3ccccc3)c(-c3ccccn3)nc2c1
The AC50 of the first is 3.1-fold higher: 7.17 µM for the first, 2.31 µM for the second.

Compared with `Nc1nnc(SCC(=O)Nc2ccc(N3CCOCC3)cc2)s1`, `Cc1ccc(C(=O)Nc2nc(-c3ccccn3)cs2)cc1S(=O)(=O)N1CCOCC1` is 20-fold lower in AC50: 16.8 µM for the first, 0.838 µM for the second.

Compared with `CCCOC(=O)c1[nH]c2c(c1C)C(=O)CC(c1cc(OC)c(OC)c(OC)c1)C2` (stereo not drawn), `COc1ccc(/C=C/C(=O)c2ccc(C(=O)/C=C/c3ccc(OC)c(OC)c3)cc2)cc1OC` is 2.7-fold higher in AC50: 1.92 µM for the first, 5.18 µM for the second.

Going from `CCOC(=O)Cc1csc(SCC(=O)c2c(N)n(CC(C)C)c(=O)n(C)c2=O)n1` to `CCN(CC)S(=O)(=O)c1ccc(N2CCOCC2)c(NC(=O)c2nn(C(C)C)c(=O)c3ccccc23)c1`, the AC50 rises from 2.35 µM to 15.6 µM (6.6-fold).

`O=C(OCC12CC3CC(CC(C3)C1)C2)c1ccc(NCc2cc(O)ccc2O)cc1` and `CCCc1ccc(C(=O)NNc2cc(Cl)ccc2Cl)cc1` are within 1.5-fold of each other in AC50: 3.25 µM for the first, 2.59 µM for the second.

Compared with `COc1ccc(OC)c2sc(N(CCN(C)C)C(=O)/C=C/c3cccs3)nc12`, `COc1ccccc1CNc1nc(NCC2CC2)nc2ccsc12` is 3.1-fold lower in AC50: 12.7 µM for the first, 4.16 µM for the second.

Going from `CC(C)c1nnc(NC(=O)c2nc(S(=O)(=O)Cc3ccccc3)ncc2Cl)s1` to `CSc1nnc(NC(=O)c2nc(S(=O)(=O)Cc3ccc(C)cc3)ncc2Cl)s1`, the AC50 rises from 0.876 µM to 3.18 µM (3.6-fold).

Compared with `CCOC(=O)CS(=O)(=O)c1nc(-c2ccccc2)cc(C(F)(F)F)n1`, `CCn1c(=NC(=O)CS(=O)(=O)c2ccccc2)sc2cccc(OC)c21` is 2-fold lower in AC50: 3.42 µM for the first, 1.68 µM for the second.

Compared with `COC(=O)Oc1ccc(/C=C/C(=O)OC(C)C)cc1OC(=O)OC`, `COc1ccc(C(CCNCc2ccc(OC(C)C)cc2)c2ccccc2OC)cc1` (stereo not drawn) is 2-fold higher in AC50: 3.29 µM for the first, 6.44 µM for the second.

Compared with `O=[N+]([O-])c1c(NCCO)cc(Sc2nc3ccccc3s2)c2nonc12`, `CCOc1ccccc1Nc1cc(C)nc2ccccc12` is 5-fold higher in AC50: 1.64 µM for the first, 8.14 µM for the second.

First: COc1cc(SC)ccc1C(=O)Nc1nc2ccccc2[nH]1
Second: Cc1ccc(C(=O)Nc2cnc3ccccc3c2)cc1
The AC50 of the first is lower: less than 0.26 µM for the first, 4.04 µM for the second.

Compared with `CCN(C(=O)C1CCN(c2nc(-c3ccc(OC)cc3)no2)CC1)c1ccc(OC)cc1`, `CCCCC(=O)NC(c1ccc(N(C)C)cc1)c1ccc2cccnc2c1O` (stereo not drawn) is 3.2-fold lower in AC50: 3.17 µM for the first, 0.98 µM for the second.

Going from `Cc1ccc2nc(-c3ccc(O)c(O)c3)cn2c1` to `Cc1cc(Cl)n2c(nc3ccccc32)c1C#N`, the AC50 falls from 4.2 µM to 1.85 µM (2.3-fold).

First: Cc1cc(C(=O)COc2cccnc2[N+](=O)[O-])c(C)n1-c1ccccc1
Second: c1ccc(CNc2ncnc3ccccc23)cc1
The AC50 of the first is 23-fold higher: 34.8 µM for the first, 1.5 µM for the second.

First: CCOC(=O)N1CCN(c2ccc(S(=O)(=O)N(Cc3ccccc3)Cc3ccccc3)cn2)CC1
Second: O=C(c1cc2sccc2n1Cc1ccccc1)N1CCN(c2nc3ccccc3s2)CC1
The AC50 of the first is 2.4-fold higher: 2.59 µM for the first, 1.09 µM for the second.

First: COC(=O)C12OCC34C(CC5C(C)=C(O)C(=O)CC5(C)C3C(O)C1O)OC(=O)C(OC(=O)/C=C(\C)C(C)C)C24 (stereo not drawn)
Second: CC1CC(C)(O)CC(C(O)CC2CC(=O)NC(=O)C2)C1=O (stereo not drawn)
The AC50 of the first is lower: less than 0.26 µM for the first, 0.339 µM for the second.

Compared with `CC1Cc2cc(S(=O)(=O)N3CCC(C(=O)N4CCN(c5ccccc5F)CC4)CC3)ccc2N1C(=O)C1CC1` (stereo not drawn), `COc1ccccc1N1CCN(C(=O)C2CCCN(S(=O)(=O)c3ccc4c(c3)CCCN4C(C)=O)C2)CC1` (stereo not drawn) is 1.6-fold higher in AC50: 1.65 µM for the first, 2.68 µM for the second.

Going from `CC(NNC(=S)N1CCN(c2ccccn2)CC1)c1nccc2ccccc12` (stereo not drawn) to `O=C(Nc1cc(F)ccc1F)N1CCN(c2ccnc3cc(Cl)ccc23)CC1`, the AC50 rises from less than 0.26 µM to 22.8 µM.

First: O=c1[nH]c2ccccc2n1C1CCN(C(c2cccs2)c2nnnn2Cc2ccccc2)CC1 (stereo not drawn)
Second: O=C1N(c2ccccc2)C[C@@H]2C[C@@H](c3cc4ccccc4o3)N3CCC[C@@]123
The AC50 of the first is 5.6-fold higher: 2.98 µM for the first, 0.536 µM for the second.

Going from `COc1ccc(-n2nnnc2S(=O)(=O)CC(=O)N2CCCCC2)cc1` to `COc1ccc(CC2NCC(O)C2OC(C)=O)cc1` (stereo not drawn), the AC50 falls from 5.44 µM to less than 0.26 µM.

Going from `Cc1cccc(CCN2C(N(C)C)=NC[C@@H]2CC(C)C)c1` to `CN1/C(=C/C(=O)c2nc(S(C)(=O)=O)ncc2Cl)C(C)(C)c2ccccc21`, the AC50 rises from 1.45 µM to 5.21 µM (3.6-fold).

First: Cc1ccc(S(=O)(=O)N2CCN(c3ncnc4sccc34)CC2)cc1
Second: CC(Nc1ncnc2sccc12)c1ccccc1 (stereo not drawn)
The AC50 of the first is 5.4-fold higher: 2.72 µM for the first, 0.505 µM for the second.

`Cc1nc(NC(C)c2ccccc2)c2oc3ccccc3c2n1` (stereo not drawn) and `CCOC(=O)c1cccc(NC2c3ccccc3C(=O)N2Cc2ccco2)c1` (stereo not drawn) are within 1.5-fold of each other in AC50: 3.06 µM for the first, 4.26 µM for the second.

With `CC(=O)N1CCN(C(=O)CCc2cc(C(C)(C)C)c(O)c(C(C)(C)C)c2)CC1` the AC50 was 4.46 µM.
